Here are results for seven compounds from ChEMBL document CHEMBL3046568, “Synthesis, antimicrobial and DNA cleavage studies of some 4-aryloxymethylcoumarins obtained by reaction of 4-bromomethylcoumarins with bidentate nucleophiles” (2012).

The test system of assay [1] is Staphylococcus aureus. Briefly: Induction of Staphylococcus aureus MTCC 3160 DNA cleavage at 50 ug after 2 hr by agarose gel electrophoresis.
The test system of the next assay is Candida albicans. Briefly: Antifungal activity against Candida albicans after 3 to 4 days by serial dilution method. The assay is classed as functional. The conditions noted are these: for MIC: Candida albicans.
For a further assay, the system named is Penicillium chrysogenum. Briefly: Antifungal activity against Penicillium chrysogenum after 3 to 4 days by serial dilution method. The assay is classed as functional. The following applies: for MIC: Penicillium chrysogenum.
Assay [2] has as its system Escherichia coli. Briefly: Induction of Escherichia coli MTCC 1089 DNA cleavage at 50 ug after 2 hr by agarose gel electrophoresis.
In the next assay the test system is Aspergillus fumigatus. Briefly: Antifungal activity against Aspergillus fumigatus after 3 to 4 days by serial dilution method. The assay is classed as functional. The following applies: for MIC: Aspergillus fumigatus.
The test system of the next assay is Pseudomonas aeruginosa. Briefly: Antibacterial activity against Pseudomonas aeruginosa MTCC 1034 after 24 hr by disk diffusion method. The assay is classed as functional. The following applies: for MIC: Pseudomonas aeruginosa, MTCC 1034, 24 h. (Agar diffusion results depend on both activity and mobility in agar.)
For the next assay, the system named is Enterococcus faecalis. Briefly: Antibacterial activity against Enterococcus faecalis MTCC 3382 after 24 hr by disk diffusion method. The assay is classed as functional. The conditions noted are these: for MIC: Enterococcus faecalis, MTCC 3382, 24 h.
The test system of assay [3] is Staphylococcus aureus. Briefly: Antibacterial activity against Staphylococcus aureus MTCC 3160 after 24 hr by disk diffusion method. The assay is classed as functional. The conditions noted are these: for MIC: Staphylococcus aureus, MTCC 3160, 24 h.
The test system of assay [4] is Aspergillus niger. Briefly: Induction of Aspergillus niger DNA cleavage at 50 ug after 2 hr by agarose gel electrophoresis.
The test system of a further assay is Klebsiella pneumoniae. Briefly: Antibacterial activity against Klebsiella pneumoniae MTCC 3384 after 24 hr by disk diffusion method. The assay is classed as functional. The following applies: for MIC: Klebsiella pneumoniae, MTCC 3384, 24 h.
For the next assay, the system named is Mucor fuscus. Briefly: Antifungal activity against Mucor fuscus after 3 to 4 days by serial dilution method. The assay is classed as functional. The conditions noted are these: for MIC: Mucor fuscus.
The subject of another assay is Bacillus subtilis. Briefly: Antibacterial activity against Bacillus subtilis MTCC 297 after 24 hr by disk diffusion method. The assay is classed as functional. The conditions noted are these: for MIC: Bacillus subtilis, MTCC 297, 24 h.
In another assay the test system is Fusarium oxysporum. Briefly: Antifungal activity against Fusarium oxysporum after 3 to 4 days by serial dilution method. The assay is classed as functional. The conditions noted are these: for MIC: Fusarium oxysporum.
The test system of assay [5] is Aspergillus niger. Briefly: Antifungal activity against Aspergillus niger after 3 to 4 days by serial dilution method. The conditions noted are these: for MIC: Aspergillus niger. The assay is classed as functional.
In assay [6] the test system is Escherichia coli. Briefly: Antibacterial activity against Escherichia coli MTCC 1089 after 24 hr by disk diffusion method. The assay is classed as functional. The conditions noted are these: for MIC: Escherichia coli, MTCC 1089, 24 h.

Values after ≈ are worked out from the molar mass of the structure shown. Active and inactive are the calls of the source. The calls are words filed in the database; no cut-off is given here.

On to `O=c1cc(COc2cccc(O)c2)c2ccc3ccccc3c2o1`, for which the outcome with Staphylococcus aureus [1], with Escherichia coli [2] and with Aspergillus niger [4] was inactive. Moreover, the “inhibition zone (IZ)” value is reported as 13 mm in the assay with Candida albicans; 16 mm with Penicillium chrysogenum; 15 mm in the assay with Aspergillus fumigatus; 19 mm with Pseudomonas aeruginosa; 13 mm in the assay on Enterococcus faecalis; 10 mm with Staphylococcus aureus [3]. Besides, the “inhibition zone (IZ)” value in the assay with Klebsiella pneumoniae was 14 mm; in the assay on Mucor fuscus it was 13 mm; in the assay on Bacillus subtilis it was 12 mm; in the assay with Fusarium oxysporum it was 12 mm; in the assay on Aspergillus niger [5], 17 mm; with Escherichia coli [6], 13 mm. Besides, the MIC (as a rule, the lowest concentration found to suppress growth) in the assay on Candida albicans is 12.5 µg/mL (≈ 39.3 µM); against Penicillium chrysogenum, 25 µg/mL (≈ 78.5 µM); with Aspergillus fumigatus, 12.5 µg/mL (≈ 39.3 µM); against Pseudomonas aeruginosa it was 6.25 µg/mL (≈ 19.6 µM); against Enterococcus faecalis it was 25 µg/mL (≈ 78.5 µM); in the assay on Staphylococcus aureus [3] it was 25 µg/mL (≈ 78.5 µM). Moreover, the MIC was 12.5 µg/mL (≈ 39.3 µM) in the assay with Klebsiella pneumoniae; 25 µg/mL (≈ 78.5 µM) with Mucor fuscus; 25 µg/mL (≈ 78.5 µM) in the assay on Bacillus subtilis; 25 µg/mL (≈ 78.5 µM) in the assay on Fusarium oxysporum; 12.5 µg/mL (≈ 39.3 µM) in the assay with Aspergillus niger [5]; 25 µg/mL (≈ 78.5 µM) in the assay with Escherichia coli [6].

For the compound `Cc1ccc2oc(=O)cc(COc3cccc(O)c3)c2c1`, the outcome in the assay with Staphylococcus aureus [1], with Escherichia coli [2] and in the assay on Aspergillus niger [4] was inactive. Besides, the “inhibition zone (IZ)” value in the assay on Candida albicans was determined as 10 mm; with Penicillium chrysogenum, 18 mm; in the assay with Aspergillus fumigatus, 16 mm; in the assay with Pseudomonas aeruginosa, 14 mm; in the assay on Enterococcus faecalis, 15 mm; in the assay with Staphylococcus aureus [3], 13 mm. For the same compound, the “inhibition zone (IZ)” value in the assay on Klebsiella pneumoniae is 13 mm; in the assay with Mucor fuscus it was 14 mm; in the assay on Bacillus subtilis, 15 mm; in the assay with Fusarium oxysporum, 8 mm; with Aspergillus niger [5], 19 mm; with Escherichia coli [6] it was 8 mm. Besides, the MIC stood at 25 µg/mL (≈ 88.6 µM) in the assay with Candida albicans; 12.5 µg/mL (≈ 44.3 µM) in the assay with Penicillium chrysogenum; 12.5 µg/mL (≈ 44.3 µM) in the assay on Aspergillus fumigatus; 25 µg/mL (≈ 88.6 µM) against Pseudomonas aeruginosa; 12.5 µg/mL (≈ 44.3 µM) in the assay with Enterococcus faecalis; 12.5 µg/mL (≈ 44.3 µM) in the assay with Staphylococcus aureus [3]. Also, the MIC with Klebsiella pneumoniae worked out at 12.5 µg/mL (≈ 44.3 µM); in the assay with Mucor fuscus, 25 µg/mL (≈ 88.6 µM); with Bacillus subtilis it was 12.5 µg/mL (≈ 44.3 µM); in the assay on Fusarium oxysporum, 50 µg/mL (≈ 177 µM); against Aspergillus niger [5], 6.25 µg/mL (≈ 22.1 µM); in the assay with Escherichia coli [6] it was 50 µg/mL (≈ 177 µM).

As to `CCN(CC)c1cccc(OCc2cc(=O)oc3ccc(Br)cc23)c1`, the result with Staphylococcus aureus [1], in the assay on Escherichia coli [2] and in the assay on Aspergillus niger [4] was Active. For the same compound, the “inhibition zone (IZ)” value in the assay on Candida albicans came out at 16 mm; in the assay with Penicillium chrysogenum it was 21 mm; in the assay with Aspergillus fumigatus it was 20 mm; in the assay on Pseudomonas aeruginosa it was 23 mm; with Enterococcus faecalis, 19 mm; in the assay on Staphylococcus aureus [3] it was 18 mm. The “inhibition zone (IZ)” value with Klebsiella pneumoniae turned out to be 18 mm; in the assay on Mucor fuscus, 18 mm; in the assay on Bacillus subtilis it was 17 mm; in the assay with Fusarium oxysporum, 14 mm; in the assay on Aspergillus niger [5] it was 20 mm; with Escherichia coli [6], 15 mm. The MIC against Candida albicans stood at 12.5 µg/mL (≈ 31.1 µM); against Penicillium chrysogenum, 6.25 µg/mL (≈ 15.5 µM); against Aspergillus fumigatus, 6.25 µg/mL (≈ 15.5 µM); against Pseudomonas aeruginosa, 6.25 µg/mL (≈ 15.5 µM); in the assay on Enterococcus faecalis, 6.25 µg/mL (≈ 15.5 µM); against Staphylococcus aureus [3] it was 6.25 µg/mL (≈ 15.5 µM). For the same compound, the MIC came out at 6.25 µg/mL (≈ 15.5 µM) against Klebsiella pneumoniae; 12.5 µg/mL (≈ 31.1 µM) against Mucor fuscus; 6.25 µg/mL (≈ 15.5 µM) in the assay with Bacillus subtilis; 25 µg/mL (≈ 62.1 µM) in the assay on Fusarium oxysporum; 6.25 µg/mL (≈ 15.5 µM) in the assay on Aspergillus niger [5]; 12.5 µg/mL (≈ 31.1 µM) against Escherichia coli [6].

As to `Cc1ccc2c(COc3cccc(O)c3)cc(=O)oc2c1`, the result with Staphylococcus aureus [1], with Escherichia coli [2] and with Aspergillus niger [4] was inactive. The “inhibition zone (IZ)” value is 9 mm in the assay on Candida albicans; 18 mm with Penicillium chrysogenum; 16 mm in the assay with Aspergillus fumigatus; 16 mm with Pseudomonas aeruginosa; 16 mm with Enterococcus faecalis; 14 mm in the assay on Staphylococcus aureus [3]. In addition, the “inhibition zone (IZ)” value was determined as 13 mm with Klebsiella pneumoniae; 14 mm in the assay with Mucor fuscus; 14 mm in the assay on Bacillus subtilis; 9 mm in the assay with Fusarium oxysporum; 19 mm with Aspergillus niger [5]; 9 mm with Escherichia coli [6]. Besides, the MIC amounted to 25 µg/mL (≈ 88.6 µM) against Candida albicans; 12.5 µg/mL (≈ 44.3 µM) against Penicillium chrysogenum; 12.5 µg/mL (≈ 44.3 µM) against Aspergillus fumigatus; 12.5 µg/mL (≈ 44.3 µM) in the assay on Pseudomonas aeruginosa; 12.5 µg/mL (≈ 44.3 µM) against Enterococcus faecalis; 12.5 µg/mL (≈ 44.3 µM) in the assay with Staphylococcus aureus [3]. Further, the minimal inhibitory concentration (MIC) came to 12.5 µg/mL (≈ 44.3 µM) against Klebsiella pneumoniae; 25 µg/mL (≈ 88.6 µM) against Mucor fuscus; 12.5 µg/mL (≈ 44.3 µM) in the assay on Bacillus subtilis; 50 µg/mL (≈ 177 µM) against Fusarium oxysporum; 6.25 µg/mL (≈ 22.1 µM) against Aspergillus niger [5]; 50 µg/mL (≈ 177 µM) with Escherichia coli [6].

In the case of `CC(=O)Nc1cccc(OCc2cc(=O)oc3ccc4ccccc4c23)c1`, the result with Staphylococcus aureus [1], with Escherichia coli [2] and with Aspergillus niger [4] was inactive. Besides, the “inhibition zone (IZ)” value with Candida albicans is on record as 15 mm; in the assay with Penicillium chrysogenum it was 18 mm; with Aspergillus fumigatus, 17 mm; in the assay on Pseudomonas aeruginosa it was 18 mm; in the assay with Enterococcus faecalis, 10 mm; with Staphylococcus aureus [3] it was 13 mm. Further, the “inhibition zone (IZ)” value is given as 15 mm with Klebsiella pneumoniae; 15 mm in the assay on Mucor fuscus; 11 mm in the assay on Bacillus subtilis; 12 mm in the assay on Fusarium oxysporum; 19 mm in the assay on Aspergillus niger [5]; 13 mm in the assay with Escherichia coli [6]. The MIC against Candida albicans is 12.5 µg/mL (≈ 34.8 µM); in the assay with Penicillium chrysogenum, 12.5 µg/mL (≈ 34.8 µM); in the assay with Aspergillus fumigatus it was 12.5 µg/mL (≈ 34.8 µM); against Pseudomonas aeruginosa it was 12.5 µg/mL (≈ 34.8 µM); against Enterococcus faecalis, 25 µg/mL (≈ 69.6 µM); in the assay with Staphylococcus aureus [3], 12.5 µg/mL (≈ 34.8 µM). Moreover, the minimal inhibitory concentration (MIC) was found to be 12.5 µg/mL (≈ 34.8 µM) against Klebsiella pneumoniae; 25 µg/mL (≈ 69.6 µM) against Mucor fuscus; 25 µg/mL (≈ 69.6 µM) against Bacillus subtilis; 25 µg/mL (≈ 69.6 µM) against Fusarium oxysporum; 6.25 µg/mL (≈ 17.4 µM) in the assay with Aspergillus niger [5]; 25 µg/mL (≈ 69.6 µM) against Escherichia coli [6].

`O=C(O)c1cn(C2CC2)c2cc(N3CCNCC3)c(F)cc2c1=O` [CIPROFLOXACIN]: the “inhibition zone (IZ)” value is 25 mm in the assay with Pseudomonas aeruginosa; 23 mm in the assay on Enterococcus faecalis; 21 mm with Staphylococcus aureus [3]; 21 mm in the assay with Klebsiella pneumoniae; 20 mm in the assay on Bacillus subtilis; 18 mm in the assay with Escherichia coli [6]. In addition, the MIC came to 6.25 µg/mL (≈ 18.9 µM) in the assay on Enterococcus faecalis, 6.25 µg/mL (≈ 18.9 µM) with Klebsiella pneumoniae, 6.25 µg/mL (≈ 18.9 µM) with Bacillus subtilis and 12.5 µg/mL (≈ 37.7 µM) against Escherichia coli [6].

With `OC(Cn1cncn1)(Cn1cncn1)c1ccc(F)cc1F` [FLUCONAZOLE], the “inhibition zone (IZ)” value in the assay on Candida albicans came to 20 mm; with Penicillium chrysogenum it was 23 mm; with Aspergillus fumigatus, 22 mm; in the assay on Mucor fuscus, 22 mm; in the assay with Fusarium oxysporum, 17 mm; with Aspergillus niger [5], 24 mm. In addition, the minimum inhibitory concentration (MIC) against Candida albicans worked out at 6.25 µg/mL (≈ 20.4 µM); against Penicillium chrysogenum, 6.25 µg/mL (≈ 20.4 µM); in the assay with Aspergillus fumigatus it was 6.25 µg/mL (≈ 20.4 µM); in the assay with Mucor fuscus, 6.25 µg/mL (≈ 20.4 µM); in the assay with Fusarium oxysporum, 12.5 µg/mL (≈ 40.8 µM); in the assay with Aspergillus niger [5] it was 6.25 µg/mL (≈ 20.4 µM).
